The target of the assay is T1, GST-tagged-Wee1 kinase (Homo sapiens, UniProt P30291).
T1 construct: purchased Carnabio 05-177
T1 sequence (P30291 whole entry): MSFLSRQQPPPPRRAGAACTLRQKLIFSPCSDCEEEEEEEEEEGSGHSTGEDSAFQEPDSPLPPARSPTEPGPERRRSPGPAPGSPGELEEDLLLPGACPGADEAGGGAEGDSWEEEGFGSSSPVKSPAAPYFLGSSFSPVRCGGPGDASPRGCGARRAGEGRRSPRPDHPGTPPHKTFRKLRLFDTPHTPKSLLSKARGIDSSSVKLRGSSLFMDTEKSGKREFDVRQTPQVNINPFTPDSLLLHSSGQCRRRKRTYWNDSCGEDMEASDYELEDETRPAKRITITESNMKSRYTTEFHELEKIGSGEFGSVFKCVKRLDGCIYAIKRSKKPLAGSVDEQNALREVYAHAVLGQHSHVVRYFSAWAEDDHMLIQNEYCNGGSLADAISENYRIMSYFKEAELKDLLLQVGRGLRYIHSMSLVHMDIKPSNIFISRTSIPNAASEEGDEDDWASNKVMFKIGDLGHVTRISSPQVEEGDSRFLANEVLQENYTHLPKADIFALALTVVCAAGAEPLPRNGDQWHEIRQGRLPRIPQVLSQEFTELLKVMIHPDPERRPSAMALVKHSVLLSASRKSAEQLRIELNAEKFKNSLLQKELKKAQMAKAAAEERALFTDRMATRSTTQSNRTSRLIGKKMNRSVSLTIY
Kind of assay: Wee1 time-resolved fluorescence equilibrium binding assay (displacement of Oregon Green-labeled ATP-competitive kinase probe). Conditions: enzyme binding data; GST-tagged-Wee1 kinase 2 nM, fluorescent probe 300 nM, inhibitor 0.003 to 10 micromolar, 1 hour incubation; read-out: Wee-1 binding (Ki nM). As to the method: Wee1 kinase was assayed using a time-resolved fluorescence equilibrium binding assay monitoring displacement of a rapidly reversible Oregon Green-labeled ATP-competitive kinase probe (N-(2-(2-(2-(4-(4-(5-chloro-4-(2-(1-hydroxycyclobutyl)thiazol-5-yl)-1H-pyrrolo[2,3-b]pyridin-2-yl)phenyl)piperazin-1-yl)ethoxy)ethoxy)ethyl)-2′,7′-difluoro-3′,6′-dihydroxy-3-oxo-3H-spiro[isobenzofuran-1,9′-xanthene]-5-carboxamide) by competitive Wee1 inhibitors.
Table 1 depicts enzyme binding data (Ki)for exemplary compounds.
For `C=Cc1cn(-c2c(Cl)cccc2Cl)c(=O)c2cnc(Nc3ccc4c(c3)CNCC4(C)C)nc12` [Example 56, 6-(2,6-dichlorophenyl)-2-[(4,4-dimethyl-1,2,3,4-tetrahydroisoquinolin-7-yl)amino]-8-ethenylpyrido[4,3-d]pyrimidin-5(6H)-one], the inhibition constant Ki is 0.5 nM.

For the molecule `Cc1noc(C)c1-n1cc(C)c2nc(Nc3ccc4c(c3)CNCC4)ncc2c1=O` [Example 124, 6-(3,5-dimethyl-1,2-oxazol-4-yl)-8-methyl-2-(1,2,3,4-tetrahydroisoquinolin-7-ylamino)pyrido[4,3-d]pyrimidin-5(6H)-one], the inhibitory constant (Ki) is 1.6 nM.

As for `COC(=O)c1ccc(Cl)c(-n2cc(C)c3nc(Nc4ccc5c(c4)CNCC5)ncc3c2=O)c1` [Example 107, methyl 4-chloro-3-[8-methyl-5-oxo-2-(1,2,3,4-tetrahydroisoquinolin-7-ylamino)pyrido[4,3-d]pyrimidin-6(5H)-yl]benzoate], the inhibitory constant (Ki) is 321 nM.

As to `Cc1cn(-c2c(Cl)cccc2Cl)c(=O)c2cnc(Nc3ccc4c(c3)CN(C)CC4(C)C)nc12` [Example 79, 6-(2,6-dichlorophenyl)-8-methyl-2-[(2,4,4-trimethyl-1,2,3,4-tetrahydroisoquinolin-7-yl)amino]pyrido[4,3-d]pyrimidin-5(6H)-one], the Ki was 0.4 nM.

As for `Cc1cn(-c2c(Cl)cccc2Cl)c(=O)c2cnc(Nc3ccc(NC4CCN(C)CC4)cc3)nc12` [Example 116, 6-(2,6-dichlorophenyl)-8-methyl-2-({4-[(1-methylpiperidin-4-yl)amino]phenyl}amino)pyrido[4,3-d]pyrimidin-5 (6H)-one], the inhibition constant (Ki) is 0.1 nM.

As for `CC1(C)CNCc2cc(Nc3ncc4c(=O)n(-c5c(Cl)cccc5Cl)cc(C(F)F)c4n3)ccc21` [Example 85, 6-(2,6-dichlorophenyl)-8-(difluoromethyl)-2-[(4,4-dimethyl-1,2,3,4-tetrahydroisoquinolin-7-yl)amino]pyrido[4,3-d]pyrimidin-5(6H)-one], the inhibition constant (Ki) was determined as 0.265 nM.

For the molecule `Cc1cn(-c2c(F)cccc2Cl)c(=O)c2cnc(Nc3ccc4c(c3)CNCC4)nc12` [Example 75, 6-(2-chloro-6-fluorophenyl)-8-methyl-2-(1,2,3,4-tetrahydroisoquinolin-7-ylamino)pyrido[4,3-d]pyrimidin-5(6H)-one], the Ki turned out to be 0.8 nM.

`C=Cc1cn(-c2c(Cl)cccc2Cl)c(=O)c2cnc(Nc3ccc4c(c3)CCNC4)nc12` [Example 59, 6-(2,6-dichlorophenyl)-8-ethenyl-2-(1,2,3,4-tetrahydroisoquinolin-6-ylamino)pyrido[4,3-d]pyrimidin-5(6H)-one]: the inhibition constant Ki is 0.1 nM.

Consider `CN(C)C1Cc2ccc(Nc3ncc4c(=O)n(-c5c(Cl)cccc5Cl)cc(C(F)F)c4n3)cc2C1` (centres unmarked) [Example 83, 6-(2,6-dichlorophenyl)-8-(difluoromethyl)-2-{[2-(dimethylamino)-2,3-dihydro-1H-inden-5-yl]amino}pyrido[4,3-d]pyrimidin-5(6H)-one], for which the Ki came out at 0.2 nM.

On to `O=c1c2cnc(Nc3ccc4c(c3)CCNC4)nc2c(C(F)F)cn1-c1c(Cl)cccc1Cl` [Example 93, 6-(2,6-dichlorophenyl)-8-(difluoromethyl)-2-(1,2,3,4-tetrahydroisoquinolin-6-ylamino)pyrido[4,3-d]pyrimidin-5(6H)-one], for which the inhibition constant (Ki) stood at 0.358 nM.

Regarding `Cc1cccc(Cl)c1-n1cc(C)c2nc(Nc3ccc4c(c3)CNCC4)ncc2c1=O` [Example 127, 6-(2-chloro-6-methylphenyl)-8-methyl-2-(1,2,3,4-tetrahydroisoquinolin-7-ylamino)pyrido[4,3-d]pyrimidin-5(6H)-one], the Ki came to 0.3 nM.

Take `O=c1c2cnc(Nc3ccc4c(c3)CNCC43CC3)nc2c(C(F)F)cn1-c1c(Cl)cccc1Cl` [Example 86, 6-(2,6-dichlorophenyl)-8-(difluoromethyl)-2-(2′,3′-dihydro-1′H-spiro[cyclopropane-1,4′-isoquinolin]-7′-ylamino)pyrido[4,3-d]pyrimidin-5(6H)-one]: the inhibition constant Ki was determined as 0.305 nM.

For `C=Cc1cn(-c2c(F)cccc2Cl)c(=O)c2cnc(Nc3ccc(N4CCN(C)CC4)cc3)nc12` [Example 62, 6-(2-chloro-6-fluorophenyl)-8-ethenyl-2-{[4-(4-methylpiperazin-1-yl)phenyl]amino}pyrido[4,3-d]pyrimidin-5(6H)-one], the Ki worked out at 0.3 nM.

For `C=Cc1cn(-c2c(Cl)cccc2Cl)c(=O)c2cnc(Nc3ccc(N4CC5CNCC5C4)cc3)nc12` (centres unmarked) [Example 52, 6-(2,6-dichlorophenyl)-8-ethenyl-2-{[4-(hexahydropyrrolo[3,4-c]pyrrol-2(1H)-yl)phenyl]amino}pyrido[4,3-d]pyrimidin-5(6H)-one], the inhibition constant Ki is 1.8 nM.

Regarding `C=Cc1cn(-c2c(Cl)cccc2Cl)c(=O)c2cnc(Nc3ccc4c(c3)CC(N(C)C)C4)nc12` (centres unmarked) [Example 49, 6-(2,6-dichlorophenyl)-2-{[2-(dimethylamino)-2,3-dihydro-1H-inden-5-yl]amino}-8-ethenylpyrido[4,3-d]pyrimidin-5(6H)-one], the Ki is 0.3 nM.

In the case of `Cc1cn(-c2c(Cl)cccc2Cl)c(=O)c2cnc(Nc3ccc4c(c3)CN(C3CCN(C)CC3)C4)nc12` [Example 137, 6-(2,6-dichlorophenyl)-8-methyl-2-{[2-(1-methylpiperidin-4-yl)-2,3-dihydro-1H-isoindol-5-yl]amino}pyrido[4,3-d]pyrimidin-5(6H)-one], the inhibition constant (Ki) is 0.4 nM.

As for `Cc1cccc(C)c1-n1cc(C)c2nc(Nc3ccc4c(c3)CN(C)CC43CC3)ncc2c1=O` [Example 88, 6-(2,6-dimethylphenyl)-8-methyl-2-[(2′-methyl-2′,3′-dihydro-1′H-spiro[cyclopropane-1,4′-isoquinolin]-7′-yl)amino]pyrido[4,3-d]pyrimidin-5(6H)-one], the Ki was determined as 0.544 nM.

On to `COC(=O)c1cc(Nc2ncc3c(=O)n(-c4c(Cl)cccc4Cl)cc(C)c3n2)ccc1N1CCN(C)CC1` [Example 129, methyl 5-{[6-(2,6-dichlorophenyl)-8-methyl-5-oxo-5,6-dihydropyrido[4,3-d]pyrimidin-2-yl]amino}-2-(4-methylpiperazin-1-yl)benzoate], for which the Ki was found to be 0.2 nM.

In the case of `Cc1cn(-c2c(F)cccc2Cl)c(=O)c2cnc(Nc3ccc4c(c3)CN(C)CC43CC3)nc12` [Example 67, 6-(2-chloro-6-fluorophenyl)-8-methyl-2-[(2′-methyl-2′,3′-dihydro-1′H-spiro[cyclopropane-1,4′-isoquinolin]-7′-yl)amino]pyrido[4,3-d]pyrimidin-5(6H)-one], the Ki was 0.8 nM.

In the case of `Cc1cn(-c2cc(Cl)ccc2Cl)c(=O)c2cnc(Nc3ccc4c(c3)CNCC4)nc12` [Example 102, 6-(2,5-dichlorophenyl)-8-methyl-2-(1,2,3,4-tetrahydroisoquinolin-7-ylamino)pyrido[4,3-d]pyrimidin-5(6H)-one], the Ki is 17.8 nM.

Regarding `CC(O)c1cn(-c2c(Cl)cccc2Cl)c(=O)c2cnc(Nc3ccc(N4CCN(C)CC4)cc3)nc12` (centres unmarked) [Example 128, 6-(2,6-dichlorophenyl)-8-(1-hydroxyethyl)-2-{[4-(4-methylpiperazin-1-yl)phenyl]amino}pyrido[4,3-d]pyrimidin-5(6H)-one], the Ki was 2 nM.

On to `Cc1cn(-c2c(F)cccc2Cl)c(=O)c2cnc(Nc3ccc4c(c3)CN(C)CC4(C)C)nc12` [Example 70, 6-(2-chloro-6-fluorophenyl)-8-methyl-2-[(2,4,4-trimethyl-1,2,3,4-tetrahydroisoquinolin-7-yl)amino]pyrido[4,3-d]pyrimidin-5(6H)-one], for which the Ki was found to be 1.6 nM.

Take `Cc1cn(-c2cccc3ccccc23)c(=O)c2cnc(Nc3ccc4c(c3)CNCC4)nc12` [Example 100, 8-methyl-6-(naphthalen-1-yl)-2-(1,2,3,4-tetrahydroisoquinolin-7-ylamino)pyrido[4,3-d]pyrimidin-5(6H)-one]: the Ki was 4.3 nM.

Regarding `Cc1cn(-c2c(Cl)cccc2Cl)c(=O)c2cnc(Nc3ccc4c(c3)CNCC4(C)C)nc12` [Example 77, 6-(2,6-dichlorophenyl)-2-[(4,4-dimethyl-1,2,3,4-tetrahydroisoquinolin-7-yl)amino]-8-methylpyrido[4,3-d]pyrimidin-5(6H)-one], the inhibitory constant (Ki) worked out at 0.3 nM.

With “6-(2,6-dichlorophenyl)-8-methyl-2-(1,2,3,4-tetrahydroisoquinolin-6-ylamino)pyrido[4,3-d]pyrimidin-5(6H)-one [Example 76]”, the inhibitory constant (Ki) was 0.5 nM.

On to `Cc1cccc(F)c1-n1cc(C)c2nc(Nc3ccc4c(c3)CNCC4)ncc2c1=O` [Example 103, 6-(2-fluoro-6-methylphenyl)-8-methyl-2-(1,2,3,4-tetrahydroisoquinolin-7-ylamino)pyrido[4,3-d]pyrimidin-5(6H)-one], for which the Ki was 0.9 nM.

`O=c1c2cnc(Nc3ccc4c(c3)CC(N3CCCC3)C4)nc2c(C(F)F)cn1-c1c(Cl)cccc1Cl` (centres unmarked) [Example 95, 6-(2,6-dichlorophenyl)-8-(difluoromethyl)-2-{[2-(pyrrolidin-1-yl)-2,3-dihydro-1H-inden-5-yl]amino}pyrido[4,3-d]pyrimidin-5(6H)-one]: the Ki stood at 0.38 nM.

For the molecule `CN1Cc2cc(Nc3ncc4c(=O)n(-c5c(Cl)cccc5Cl)cc(C(F)F)c4n3)ccc2C2(CC2)C1` [Example 94, 6-(2,6-dichlorophenyl)-8-(difluoromethyl)-2-[(2′-methyl-2′,3′-dihydro-1′H-spiro[cyclopropane-1,4′-isoquinolin]-7′-yl)amino]pyrido[4,3-d]pyrimidin-5(6H)-one], the inhibition constant (Ki) was found to be 0.568 nM.

As for `CNC(=O)CS(=O)(=O)c1ccc(Nc2ncc3c(=O)n(-c4c(Cl)cccc4Cl)cc(C)c3n2)cc1` [Example 120, 2-[(4-{[6-(2,6-dichlorophenyl)-8-methyl-5-oxo-5,6-dihydropyrido[4,3-d]pyrimidin-2-yl]amino}phenyl)sulfonyl]-N-methylacetamide], the inhibition constant (Ki) stood at 0.3 nM.

As a reminder, the Ki is a dissociation constant, usually derived from enzyme kinetics or from competition with a known ligand.

These data come from US9718821B2, “Pyridopyrimidinone inhibitors of kinases” (AbbVie Inc., priority 2012, dated 2017).
